Results from US20140023611A1 (priority 2010, published 2014).
Where a name gives a salt, the structure may show the parent alone.

Assays:
[1] = target: T1, human NaP2b (SLC34A2) (Homo sapiens, UniProt O95436); experiment: Inhibition of NaP2b-mediated Pi (33P) uptake in transfected HEK293 cells, human NaP2b; assay type: cell-based; settings: read-out: pIC50 range for human NaP2b (converted)
T1 construct: host or cells: HEK293
T1 sequence (O95436 1-690): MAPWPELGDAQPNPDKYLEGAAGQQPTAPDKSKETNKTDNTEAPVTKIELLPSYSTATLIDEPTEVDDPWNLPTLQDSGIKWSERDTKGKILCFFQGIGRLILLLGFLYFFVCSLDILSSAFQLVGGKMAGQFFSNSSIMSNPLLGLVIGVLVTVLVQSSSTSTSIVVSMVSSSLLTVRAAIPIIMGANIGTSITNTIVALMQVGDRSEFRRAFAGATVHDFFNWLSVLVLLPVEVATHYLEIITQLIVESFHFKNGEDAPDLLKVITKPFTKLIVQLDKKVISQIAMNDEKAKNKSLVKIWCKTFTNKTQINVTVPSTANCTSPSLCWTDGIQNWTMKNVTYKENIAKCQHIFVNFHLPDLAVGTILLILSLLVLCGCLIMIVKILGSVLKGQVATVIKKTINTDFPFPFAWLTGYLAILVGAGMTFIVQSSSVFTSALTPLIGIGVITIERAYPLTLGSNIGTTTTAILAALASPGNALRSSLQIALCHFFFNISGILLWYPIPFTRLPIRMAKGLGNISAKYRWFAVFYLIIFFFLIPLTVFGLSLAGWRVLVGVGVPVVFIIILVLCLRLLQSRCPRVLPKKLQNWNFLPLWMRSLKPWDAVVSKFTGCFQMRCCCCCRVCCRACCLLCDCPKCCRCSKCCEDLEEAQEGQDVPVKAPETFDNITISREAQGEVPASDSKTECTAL
In short: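 HEK293 cells transiently transfected with human NaP2b (Thr inserted after residue 37, N39D), endogenous PiT transport pharmacologically silenced. Sodium or choline buffer, pH 7.4, with 100 uM KH2PO4, 33P orthophosphate and compound (0.1 nM–30 uM, twelve concentrations, duplicate). 3-30 min at room temperature, scintillation counting, pIC50 derived.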

[2] = Determination of compound Cmax and AUC after oral gavage (plasma LC-MS/MS); assay type: in vivo, Sprague-Dawley rats; settings: Sprague-Dawley, rat, plasma, po, Structure (I) examples
In short: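 Sprague-Dawley rats dosed by oral gavage at nominal 2.5 or 10 mg/kg; blood drawn at 0.5, 1, 2 and 4 h into K2EDTA. Plasma protein-precipitated with acetonitrile plus internal standard and analysed by LC-MS/MS against a plasma standard curve to derive Cmax and AUC.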

[3] = Table 15, actual oral dose 3-15 mg/kg, plasma 0.5-4 h
[4] = Table 15, actual oral dose 15-40 mg/kg, plasma 0.5-4 h

| Compound | IC50 [1] | AUC [2, 3] | Cmax [2, 3] | AUC [2, 4] | Cmax ([2]; Table 15, plasma 0.5-4 h) |
| --- | --- | --- | --- | --- | --- |
| CCN(CC)c1ccc(NC(=O)c2cccc(CSCCOCCOCCOCCOCCOCCOCCOCCOC)c2)c(-c2cc(C(=O)N[C@H]3CCCc4ccccc43)ccn2)c1 [Example 286, (S)-2-(2-(3-(2,5,8,11,14,17,20,23-octaoxa-26-thiaheptacosan-27-yl)benzamido)-5-(diethylamino)phenyl)-N-(1,2,3,4-tetrahydronaphthalen-1-yl)isonicotinamide] | < 1 µM | < 10 ng·h/mL | < 10 ng/mL |  |  |
| CCN(CC)c1ccc(NC(=O)c2cccc(CCCOCCOCCOCCOCCOCCOCCOCCOCCOCCC(=O)O)c2)c(-c2cc(C(=O)NCc3cccc(C(F)(F)F)c3)ccn2)c1 [Example 298, 31-(3-(4-(diethylamino)-2-(4-(3-(trifluoromethyl)benzylcarbamoyl)pyridin-2-yl)phenylcarbamoyl)phenyl)-4,7,10,13,16,19,22,25,28-nonaoxahentriacontan-1-oic acid] | 1 to 7.94 µM |  |  | < 30 ng·h/mL | < 30 ng/mL |
| CCN(CC)c1ccc(NC(=O)c2cccc(CCCOCCOCCOCCOCCOCCOCCC(=O)O)c2)c(-c2cc(C(=O)NCc3cccc(C(F)(F)F)c3)ccn2)c1 [Example 299, 22-(3-(4-(diethylamino)-2-(4-(3-(trifluoromethyl)benzylcarbamoyl)pyridin-2-yl)phenylcarbamoyl)phenyl)-4,7,10,13,16,19-hexaoxadocosan-1-oic acid] | < 1 µM |  |  | < 30 ng·h/mL | < 30 ng/mL |

Results, then the molecule that gave them:

| IC50 [1] | AUC [2, 3] | Cmax [2, 3] | AUC [2, 4] | Cmax ([2]; Table 15, plasma 0.5-4 h) | Compound |
| --- | --- | --- | --- | --- | --- |
| < 1 µM |  |  | < 30 ng·h/mL | < 10 ng/mL | CCN(CC)c1ccc(NC(=O)c2cccc(CCCOCCOCCOCCOCCOCCC(=O)O)c2)c(-c2cc(C(=O)NCc3cccc(C(F)(F)F)c3)ccn2)c1 [Example 300, 19-(3-(4-(diethylamino)-2-(4-(3-(trifluoromethyl)benzylcarbamoyl)pyridin-2-yl)phenylcarbamoyl)phenyl)-4,7,10,13,16-pentaoxanonadecan-1-oic acid] |
| 1 to 7.94 µM | > 50 ng·h/mL | < 10 ng/mL |  |  | CCN(CC)c1ccc(NC(=O)c2cccc(C(=O)N(C)CCN(CCOC)CCOCCOCCOCCOCCOCCOCCOC)c2)c(-c2cc(C(=O)NCc3cccc(C(F)(F)F)c3)ccn2)c1 [Example 335, N^1-(4-(Diethylamino)-2-(4-(3-(trifluoromethyl)benzylcarbamoyl)pyridin-2-yl)phenyl)-N^3-(23-(2-methoxyethyl)-2,5,8,11,14,17,20-heptaoxa-23-azapentacosan-25-yl)-N^3-methylisophthalamide, trifluoroacetate] |
